The values that follow come from patent US6455528B1, “Piperazine compounds and medicinal use thereof” (Mitsubishi Pharma Corporation, priority 1997, dated 2002).

Where a name gives a salt, the structure may show the parent alone.

Broadly, the melting point is the temperature, or range, at which the solid turns liquid. For the compound `CC(=O)NC(C)c1ccc(CN2CCN(c3nccs3)CC2)cc1` (stereo not shown) [Example 101, N-(1-(4-((4-(Thiazol-2-yl)piperazin-1-yl)methyl)phenyl)ethyl)acetamide], the melting point was in the range of 136 to 137 °C.
Then `COc1ccc(N2CCN(Cc3ccc(CNC(C)=O)cc3)CC2)cc1` [Example 13, N-(4-((4-(4-Methoxyphenyl)piperazin-1-yl)methyl)phenylmethyl)acetamide], with 137 to 138 °C; and `NCc1ccc(CN2CCN(c3ncccn3)CC2)cc1` [Example 74, 2-(4-(4-(Aminomethyl)phenylmethyl)-piperazin-1-yl)pyrimidine], with 70 to 72 °C; and `CC(=O)NCc1ccc(CN2CCN(c3ccc(Cl)cn3)CC2)cc1` [Example 86, N-(4-((4-(5-Chloropyridin-2-yl)piperazin-1-yl)methyl)phenylmethyl)acetamide], with 155 to 156 °C.
Take `CC(=O)NCc1ccc(CN2CCN(c3ccc(F)cc3)CC2)cc1` [Example 5, N-(4-((4-(4-fluorophenyl)piperazin-1-yl)methyl)phenylmethyl)acetamide]: the melting point is 164 to 166 °C.
For `CC(=O)NCc1ccc(CN2CCN(c3nc(F)cc(F)n3)CC2)cc1` [Example 78, N-(4-((4-(4,6-Difluoropyrimidin-2-yl)piperazin-1-yl)methyl)phenylmethyl)acetamide], the melting point fell in the range of 128 to 129 °C.
Then `CCOc1cc(OCC)nc(N2CCN(Cc3ccc(CNC(C)=O)cc3)CC2)n1` [Example 108, N-(4-((4-(4,6-Diethoxypyrimidin-2-yl)piperazin-1-yl)methyl)phenylmethyl)acetamide], with 119 to 120 °C; and `CC(=O)NCc1ccc(CN2CCN(c3ncc(Br)s3)CC2)cc1` [Example 111, N-(4-((4-(5-Bromothiazol-2-yl)piperazin-1-yl)methyl)phenylmethyl)acetamide], with 160 to 163 °C.
For the compound `O=CNCc1ccc(CN2CCN(c3ncccn3)CC2)cc1` [Example 76, N-(4-((4-(Pyrimidin-2-yl)piperazin-1-yl)methyl)phenylmethyl)formamide], the melting point was 97 to 98 °C.
On to `CC(=O)NCc1ccc(CN2CCN(c3ccccc3)CC2)cc1N` [Example 22, N-(2-Amino-4-((4-phenylpiperazin-1-yl)methyl)phenylmethyl)acetamide], for which the melting point was 148 to 149 °C.
`CC(=O)NC(C)c1ccc(CN2CCN(c3cccc(F)n3)CC2)cc1` (stereo not shown) [Example 102, N-(1-(4-((4-(6-Fluoropyridin-2-yl)piperazin-1-yl)methyl)phenyl)ethyl)acetamide] yielded a melting point of 109 to 111 °C.
As to `CC(=O)NCc1ccc(CN2CCN(c3ccc(F)cc3)CC2)cc1N` [Example 24, N-(2-Amino-4-((4-(4-fluorophenyl)piperazin-1-yl)methyl)phenylmethyl)acetamide], the melting point fell in the range of 163 to 164 °C.
For `NCc1ccc(CN2CCN(c3ccccc3)CC2)cc1` [Example 2, 4-((4-(Aminomethyl)phenyl)methyl)-1-phenylpiperazine] the value was 68 to 70 °C; for `CC(=O)NCc1ccc(CN2CCN(c3ccc(O)cc3)CC2)cc1` (as salt: hydrochloride) [Example 36, N-(4-((4-(4-Hydroxyphenyl)piperazin-1-yl)methyl)phenylmethyl)acetamide Dihydrochloride], 218 to 220 °C; for `CC(=O)NC(C)c1ccc(CN2CCN(c3ccccc3)CC2)cc1` (stereo not shown) (as salt: hydrochloride) (hydrate or solvate) [Example 58, N-(1-(4-((4-Phenylpiperazin-1-yl)methyl)phenyl)ethyl)acetamide Dihydrochloride 1/4 Hydrate], 196 to 200 °C.
Then `CC(=O)NC(C)c1ccc(CN2CCN(c3ccc(F)cc3F)CC2)cc1` (stereo not shown) [Example 49, N-(1-(4-((4-(2,4-Difluorophenyl)piperazin-1-yl)methyl)phenyl)ethyl)acetamide], with 109 to 111 °C; and `CCC(=O)NCc1ccc(CN2CCN(c3ccccc3)CC2)cc1` [Example 4, N-(4-((4-Phenylpiperazin-1-yl)methyl)phenylmethyl)propionamide], with 140 to 141 °C.
Then `CC(=O)NCc1ccc(CN2CCN(c3nccc(Cl)n3)CC2)cc1` [Example 97, N-(4-((4-(4-chloropyrimidin-2-yl)piperazin-1-yl)methyl)phenylmethyl)acetamide], with 122 to 124 °C.
`CC(=O)NCc1ccc(CN2CCN(c3ccc(F)cc3NC(C)=O)CC2)cc1` [Example 39, N-(4-((4-(2-Acetylamino-4-fluorophenyl)piperazin-1-yl)methyl)phenylmethyl)acetamide] gave a melting point of 148 to 149.5 °C.
Then `CC(=O)NCc1ccc(C(C)N2CCN(c3ccc(F)cc3)CC2)cc1` (stereo not shown) [Example 59, N-(4-(1-(4-(4-Fluorophenyl)piperazin-1-yl)ethyl)phenylmethyl)acetamide], with 128 to 130 °C.
For `CC(=O)NCc1ccc(CN2CCN(c3ccc(F)cc3[N+](=O)[O-])CC2)cc1` [Example 37, N-(4-((4-(4-Fluoro-2-nitrophenyl)-piperazin-1-yl)methyl)phenylmethyl)acetamide] the value was 94.5 to 96 °C; for `CC(=O)NCc1ccc(CN2CCN(c3ccc(Cl)cc3)CC2)cc1` [Example 11, N-(4-((4-(4-Chlorophenyl)piperazin-1-yl)methyl)phenylmethyl)acetamide], 180.5 to 182 °C.
Then `CC(=O)NCc1ccc(CN2CCN(c3ccc(F)cc3)CC2)cc1Cl` [Example 26, N-(2-Chloro-4-((4-(4-fluorophenyl)-piperazin-1-yl)methyl)phenylmethyl)acetamide], with 141 to 142 °C; and `CC(=O)NCc1ccc(CN2CCN(c3ccccc3)CC2)cc1[N+](=O)[O-]` [Example 21, N-(2-Nitro-4-((4-phenylpiperazin-1-yl)methyl)phenylmethyl)acetamide], with 135 to 136 °C.
`CC(=O)NC1(c2ccc(CN3CCN(c4ccc(F)cc4)CC3)cc2)CC1` [Example 65, N-(1-(4-((4-(4-Fluorophenyl)piperazin-1-yl)methyl)phenyl)cyclopropyl)acetamide] showed a melting point of 124 to 126 °C.
For `CC(=O)N[C@H](C)c1ccc(CN2CCN(c3ccc(F)cc3)CC2)cc1` [Example 122, (R)-N-(1-(4-((4-(4-fluorophenyl)piperazin-1-yl)methyl)phenyl)ethyl)acetamide] the value was 114 to 115 °C.
`CC(=O)NCc1ccc(CN2CCN(c3ncccn3)CC2)cc1` (as salt: hydrochloride) (hydrate or solvate) [Example 73, N-(4-((4-(Pyrimidin-2-yl)piperazin-1-yl)methyl)phenylmethyl)acetamide Dihydrochloride Monohydrate] had a melting point of 194 to 195 °C.
`CC(=O)NCc1ccc(CN2CCN(c3ccnc(Cl)n3)CC2)cc1` [Example 97, N-(4-((4-(2-Chloropyrimidin-4-yl)piperazin-1-yl)methyl)phenylmethyl)acetamide]: the melting point was in the range of 132 to 133 °C.
For `COc1cc(N(C)C)nc(N2CCN(Cc3ccc(CNC(C)=O)cc3)CC2)n1` [Example 110, N-(4-((4-(4-Dimethylamino-6-methoxypyrimidin-2-yl)piperazin-1-yl)methyl)phenylmethyl)acetamide] the value was 115 to 118 °C; for `CC(=O)NCc1ccc(CN2CCN(c3cccc(C)c3)CC2)cc1` [Example 9, N-(4-((4-(3-Methylphenyl)piperazin-1-yl)methyl)phenylmethyl)acetamide], 80 to 81 °C.
As to `COc1ccnc(N2CCN(Cc3ccc(C(C)NC(C)=O)cc3)CC2)n1` (stereo not shown) [Example 107, N-(1-(4-((4-(4-Methoxypyrimidin-2-yl)piperazin-1-yl)methyl)phenyl)ethyl)acetamide], the melting point was in the range of 113 to 115 °C.
The compound `CC(=O)NCc1ccc(CN2CCN(c3cc(Cl)nc(Cl)n3)CC2)cc1` [Example 89, N-(4-((4-(2,6-Dichloropyrimidin-4-yl)piperazin-1-yl)methyl)phenylmethyl)acetamide] had a melting point of 165 to 166 °C.
For `CC(=O)NC1(c2ccc(CN3CCN(c4ccccc4)CC3)cc2)CC1` [Example 57, N-(1-(4-((4-Phenylpiperazin-1-yl)methyl)-phenyl)cyclopropyl)acetamide] the value was 129 to 139.5 °C.
For `CC(=O)NCc1ccc(CN2CCN(c3ccc(F)cc3Br)CC2)cc1` (as salt: hydrochloride) the value was 231 to 235 °C; for `CC(=O)NCc1ccc(CN2CCN(c3ccc(F)cc3N)CC2)cc1` [Example 38, N-(4-((4-(2-Amino-4-fluorophenyl)piperazin-1-yl)methyl)phenylmethyl)acetamide], 139 to 140 °C; for `CC(=O)NCc1ccc(CN2CCN(c3ccc(NC(C)=O)cc3)CC2)cc1` [Example 35, N-(4-((4-(4-Acetamidophenyl)piperazin-1-yl)methyl)phenylmethyl)acetamide], 225 to 226 °C.
Then `O=CNCc1ccc(CN2CCN(c3ccccc3)CC2)cc1` [Example 3, N-(4-((4-Phenylpiperazin-1-yl)methyl)phenylmethyl)formamide], with 108 to 109 °C; and `COc1cc(OC)nc(N2CCN(Cc3ccc(C(C)(C)NC(C)=O)cc3)CC2)n1` [Example 96, N-(1-(4-((4-(4,6-Dimethoxypyrimidin-2-yl)piperazin-1-yl)methyl)phenyl)-1-methylethyl)acetamide], with 199 to 202 °C; and `CC(=O)NCc1ccc(CN2CCN(c3nc(C)cc(C)n3)CC2)cc1` [Example 93, N-(4-((4-(4,6-Dimethylpyrimidin-2-yl)piperazin-1-yl)methyl)phenylmethyl)acetamide], with 127 to 128 °C.
In turn, `CC(=O)NC(C)c1ccc(CN2CCN(c3ncccn3)CC2)cc1` (stereo not shown) [Example 69, N-(1-(4-((4-(Pyrimidin-2-yl)piperazin-1-yl)methyl)phenyl)ethyl)acetamide] showed a melting point of 124 to 126 °C.
